{
  "source": "patent US7476689B2",
  "about": "“Therapeutic compositions for intranasal administration which include KETOROLAC” (Recordati Ireland Limited, priority 1991, dated 2009)",
  "key": {"patients": {"test_system": "patients", "conditions": "cited from earlier work"}, "[1]": {"assay": "nasal absorption: KTM plasma levels by HPLC after intranasal or intravenous administration", "type": "in vivo, White New Zealand rabbits", "conditions": "rabbit", "procedure": "Each rabbit received a active preparation in one nostril and its placebo in the other. Each animal received 2 mg/kg of KETOROLAC® tromethamine (KTM), twice a day for seven days and once on the eighth day. The control rabbits were treated, after seven days of nasal administration of physiologic solution, with 2 mg/kg of KTM by intravenous route once. After the last treatment plasma samples were collected at several times and KTM plasma levels were investigated by HPLC. After the last blood sample was drawn all the animals were killed by excision of femoral arteries, after having been completely anaesthetized. Nasal turbinates, larynx and pharynx were removed and subjected to histological examinations."}},
  "data": [
    {"smiles": "O=C(c1ccccc1)c1ccc2n1CCC2C(=O)O", "note": "(stereo not drawn) [KETOROLAC®, 5-benzoyl-2,3-dihydro-1H-pyrrolizine-1-carboxylic acid]", "values": [
      {"measurement": "patients with one or more undesirable side effects", "setting": "patients; intramuscular route, 20 doses of 30 mg each over five days", "result": "about 10%"},
      {"measurement": "patients with gastrointestinal disorders", "setting": "patients; oral administration", "result": "up to 50%"},
      {"measurement": "incidence of side effects", "setting": "patients; oral route for a few days", "result": "around 32%"}
    ]},
    {"smiles": "O=C(c1ccccc1)c1ccc2n1CCC2C(=O)O", "note": "(stereo not drawn) [KTM, KETOROLAC® tromethamine]", "values": [
      {"measurement": "concentration at 0.083 h", "setting": "[1]; New Zealand White, plasma, intravenous 2 mg/kg once, 0.083 hours", "result": 14500, "unit": "ng/mL"},
      {"measurement": "concentration at 0.25 h", "setting": "[1]; New Zealand White, plasma, intravenous 2 mg/kg once, 0.25 hours", "result": 7680, "unit": "ng/mL"},
      {"measurement": "concentration at 0.5 h", "setting": "[1]; New Zealand White, plasma, intravenous 2 mg/kg once, 0.5 hours", "result": 3880, "unit": "ng/mL"},
      {"measurement": "concentration at 1 h", "setting": "[1]; New Zealand White, plasma, intravenous 2 mg/kg once, 1 hour", "result": 1700, "unit": "ng/mL"},
      {"measurement": "concentration at 2 h", "setting": "[1]; New Zealand White, plasma, intravenous 2 mg/kg once, 2 hours", "result": 403, "unit": "ng/mL"},
      {"measurement": "concentration at 3 h", "setting": "[1]; New Zealand White, plasma, intravenous 2 mg/kg once, 3 hours", "result": 120, "unit": "ng/mL"},
      {"measurement": "concentration at 5 h", "setting": "[1]; New Zealand White, plasma, intravenous 2 mg/kg once, 5 hours", "result": 20, "unit": "ng/mL"},
      {"measurement": "AUC(0-t)", "setting": "[1]; New Zealand White, plasma, intravenous 2 mg/kg, mean of three animals, read-out: AUC0-5, average", "result": 7360, "unit": "ng·h/mL"},
      {"measurement": "Plasma Concentration of KTM, Mean", "setting": "[1]; intravenous 2 mg/kg once, sampling time Basal", "result": 0, "unit": "ng/mL"}
    ]}
  ]
}
